Reference: PubChem BioAssay (NCI)
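Test compounds were applied to cells in 96-well plates for 48 hours at 5 doses. TGI denotes the concentration required for complete inhibition of growth.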 *1 amine or outer side, *2 acyl side, *3 side chain or, on linkers, in order; H or OH if unused. Where a SMILES comes first, the peptide text is derived from it. [ ]: non-standard residue; d: D form. ξ: configuration not given here. X22 = O=C(C(CC(O)CO)O[*:1])[*:2]; Ile(3ξ) = CCC(C)[C@H](N)C(=O)O; NMeV = CN[C@H](C(=O)O)C(C)C; NMeA = CN[C@@H](C)C(=O)O; βAla = NCCC(=O)O

Assays:
Experiment in all cases: NCI tumour cell line growth inhibition, 48 h
DMS 114 small cell lung = tested on: DMS 114 small cell lung
KM20L2 colon = tested on: KM20L2 colon
SNB-78 CNS = tested on: SNB-78 CNS
LXFL 529 NSCLC = tested on: LXFL 529 NSCLC
XF 498 CNS = tested on: XF 498 CNS
M19-MEL melanoma = tested on: M19-MEL melanoma
DMS 273 small cell lung = tested on: DMS 273 small cell lung
HOP-18 NSCLC = tested on: HOP-18 NSCLC
RXF-631 renal = tested on: RXF-631 renal

## COC(=O)/C(=N/NC(C)(C)C)C(C(=O)OC)C(=O)C(=O)Nc1nc2ccc([N+](=O)[O-])cc2s1 (stereo not drawn)
DMS 114 small cell lung
  TGI: > 100 µM
KM20L2 colon
  TGI: > 100 µM
SNB-78 CNS
  TGI: > 100 µM
LXFL 529 NSCLC
  TGI: > 100 µM
XF 498 CNS
  TGI: > 100 µM
M19-MEL melanoma
  TGI: > 100 µM

## C[N+]1(C)C[C@@H](O)C[C@@H]1C(=O)[O-]
DMS 114 small cell lung
  TGI: > 100 µM
KM20L2 colon
  TGI: > 100 µM
SNB-78 CNS
  TGI: > 100 µM
DMS 273 small cell lung
  TGI: > 100 µM
LXFL 529 NSCLC
  TGI: > 100 µM
XF 498 CNS
  TGI: > 100 µM
HOP-18 NSCLC
  TGI: > 100 µM
M19-MEL melanoma
  TGI: > 100 µM

## CSc1nc2nc(C(O)C(O)C(O)CO)cnc2c(=O)[nH]1 (stereo not drawn)
DMS 114 small cell lung
  TGI: > 100 µM
KM20L2 colon
  TGI: > 100 µM
SNB-78 CNS
  TGI: > 100 µM
DMS 273 small cell lung
  TGI: > 100 µM
LXFL 529 NSCLC
  TGI: > 100 µM
XF 498 CNS
  TGI: > 100 µM
M19-MEL melanoma
  TGI: > 100 µM

## CC(=O)NC(CCCNC(=O)OCc1ccccc1)C(=O)O (stereo not drawn)
DMS 114 small cell lung
  TGI: > 100 µM
KM20L2 colon
  TGI: > 100 µM
SNB-78 CNS
  TGI: > 100 µM
RXF-631 renal
  TGI: > 100 µM
DMS 273 small cell lung
  TGI: > 100 µM
LXFL 529 NSCLC
  TGI: > 100 µM
XF 498 CNS
  TGI: > 100 µM
M19-MEL melanoma
  TGI: > 100 µM

## CCOC(=O)C1=C(c2ccccc2)N(C(C)=O)Cc2ccccc21
DMS 114 small cell lung
  TGI: 25.9 µM
KM20L2 colon
  TGI: 53.7 µM
DMS 273 small cell lung
  TGI: 29.8 µM
LXFL 529 NSCLC
  TGI: > 100 µM
XF 498 CNS
  TGI: 25 µM
HOP-18 NSCLC
  TGI: 99.4 µM
M19-MEL melanoma
  TGI: 39.3 µM

## CCC(C)[C@@H]1NC(=O)[C@@H]2CCCN2C(=O)C(CC(O)CO)OC(=O)CCNC(=O)[C@H](C)N(C)C(=O)[C@H](C(C)C)N(C)C1=O (stereo partly drawn) (cyclo([Ile(3ξ)][NMeV][NMeA][βAla][X22]P))
KM20L2 colon
  TGI: > 100 µM
SNB-78 CNS
  TGI: > 100 µM
RXF-631 renal
  TGI: > 100 µM
DMS 273 small cell lung
  TGI: > 100 µM
LXFL 529 NSCLC
  TGI: > 100 µM
XF 498 CNS
  TGI: > 100 µM
M19-MEL melanoma
  TGI: > 100 µM

## N#CC1CCCCC1NC1(C#N)CCCCC1 (stereo not drawn)
DMS 114 small cell lung
  TGI: > 100 µM
KM20L2 colon
  TGI: > 100 µM
SNB-78 CNS
  TGI: > 100 µM
DMS 273 small cell lung
  TGI: > 100 µM
LXFL 529 NSCLC
  TGI: > 100 µM
XF 498 CNS
  TGI: > 100 µM

## CCOC(=O)c1c2ccc(/C=C/c3ccccc3)ccc-2c(C(=O)OCC)c1N
DMS 114 small cell lung
  TGI: > 100 µM
KM20L2 colon
  TGI: > 100 µM
RXF-631 renal
  TGI: > 100 µM
DMS 273 small cell lung
  TGI: > 100 µM
LXFL 529 NSCLC
  TGI: > 100 µM
HOP-18 NSCLC
  TGI: > 100 µM
M19-MEL melanoma
  TGI: > 100 µM

## CCSc1nnc(-c2ccccc2)nc1Cc1ccc(OC)cc1
KM20L2 colon
  TGI: > 100 µM
SNB-78 CNS
  TGI: > 100 µM
DMS 273 small cell lung
  TGI: > 100 µM
LXFL 529 NSCLC
  TGI: > 100 µM
XF 498 CNS
  TGI: > 100 µM
HOP-18 NSCLC
  TGI: > 100 µM
M19-MEL melanoma
  TGI: > 100 µM

## COC(=O)C(Cc1nc2ccccc2[nH]c1=O)C(=O)C(=O)Nc1ccc(F)cc1 (stereo not drawn)
DMS 114 small cell lung
  TGI: 80.7 µM
KM20L2 colon
  TGI: > 100 µM
RXF-631 renal
  TGI: > 100 µM
DMS 273 small cell lung
  TGI: > 100 µM
LXFL 529 NSCLC
  TGI: 30 µM
XF 498 CNS
  TGI: > 100 µM
HOP-18 NSCLC
  TGI: > 100 µM
M19-MEL melanoma
  TGI: > 100 µM

## O=C(O)COc1ccc(C(=O)/C(SS/C(C(=O)c2ccc(OCC(=O)O)c(Cl)c2Cl)=C2\C=C(c3ccccc3Cl)SS2)=C2/C=C(c3ccccc3Cl)SS2)c(Cl)c1Cl
DMS 114 small cell lung
  TGI: 26.1 µM
KM20L2 colon
  TGI: > 100 µM
SNB-78 CNS
  TGI: 52.5 µM
RXF-631 renal
  TGI: > 84.9 µM
DMS 273 small cell lung
  TGI: 56.9 µM
LXFL 529 NSCLC
  TGI: 19.9 µM
XF 498 CNS
  TGI: 50.4 µM
HOP-18 NSCLC
  TGI: > 72.4 µM
M19-MEL melanoma
  TGI: > 66.6 µM

## COc1c(C)c(O)c2c(c1C)OC(c1ccccc1)CC2=O (stereo not drawn)
DMS 114 small cell lung
  TGI: > 100 µM
KM20L2 colon
  TGI: > 100 µM
SNB-78 CNS
  TGI: > 100 µM
DMS 273 small cell lung
  TGI: > 100 µM
LXFL 529 NSCLC
  TGI: > 100 µM
HOP-18 NSCLC
  TGI: > 100 µM
M19-MEL melanoma
  TGI: > 100 µM

## CCOC(=O)CC(NCc1ccc(N=Cc2nc3ccc(C(F)(F)F)cc3nc2-c2ccccc2)cc1)C(=O)OCC (stereo not drawn)
DMS 114 small cell lung
  TGI: > 100 µM
KM20L2 colon
  TGI: > 100 µM
SNB-78 CNS
  TGI: > 100 µM
DMS 273 small cell lung
  TGI: > 100 µM
LXFL 529 NSCLC
  TGI: > 100 µM
XF 498 CNS
  TGI: 40.5 µM
HOP-18 NSCLC
  TGI: > 100 µM
M19-MEL melanoma
  TGI: > 100 µM

## COC1=CC(=O)C2C(C1=O)C(c1ccc(Cl)cc1)[C@@H]2C (stereo partly drawn)
DMS 114 small cell lung
  TGI: 47.7 µM
KM20L2 colon
  TGI: > 100 µM
SNB-78 CNS
  TGI: > 100 µM
DMS 273 small cell lung
  TGI: > 100 µM
LXFL 529 NSCLC
  TGI: 32.7 µM
XF 498 CNS
  TGI: 37.5 µM
HOP-18 NSCLC
  TGI: 25.2 µM
M19-MEL melanoma
  TGI: 97.9 µM
